Results reported in ChEMBL document CHEMBL4507281, “Data for DCP probe BI-4394” (2021).

Legend:
[1] = molecular target: Rho-associated protein kinase 2 (Homo sapiens) (UniProt O75116); conditions: Compound concentration 100.0 nM
[2] = molecular target: Dual specificity protein kinase CLK3 (Homo sapiens) (UniProt P49761); conditions: Compound concentration 100.0 nM
[3] = system: Phosphatidylinositol 4,5-bisphosphate 3-kinase catalytic subunit alpha isoform (Homo sapiens), P42336 [I800L]; conditions: Compound concentration 100.0 nM
[4] = system: Serine/threonine-protein kinase B-raf (Homo sapiens), P15056 [V600E]; conditions: Compound concentration 100.0 nM
[5] = molecular target: Serine/threonine-protein kinase PAK 1 (Homo sapiens) (UniProt Q13153); conditions: Compound concentration 100.0 nM
[6] = molecular target: Serine/threonine-protein kinase 32C (Homo sapiens) (UniProt Q86UX6); conditions: Compound concentration 100.0 nM
[7] = molecular target: Phosphatidylinositol 3-kinase catalytic subunit type 3 (Homo sapiens) (UniProt Q8NEB9); conditions: Compound concentration 100.0 nM
[8] = molecular target: Histamine H1 receptor (Homo sapiens) (UniProt P35367); conditions: Compound concentration 10.0 uM
[9] = molecular target: SRSF protein kinase 1 (Homo sapiens) (UniProt Q96SB4); conditions: Compound concentration 100.0 nM
[10] = molecular target: Mitogen-activated protein kinase kinase kinase 4 (Homo sapiens) (UniProt Q9Y6R4); conditions: Compound concentration 100.0 nM
[11] = molecular target: RAC-gamma serine/threonine-protein kinase (Homo sapiens) (UniProt Q9Y243); conditions: Compound concentration 100.0 nM
[12] = molecular target: BDNF/NT-3 growth factors receptor (Homo sapiens) (UniProt Q16620); conditions: Compound concentration 100.0 nM
[13] = system: Tyrosine-protein kinase ABL1 (Homo sapiens), P00519 [M351T]; conditions: Compound concentration 100.0 nM
[14] = molecular target: Serine/threonine-protein kinase ULK2 (Homo sapiens) (UniProt Q8IYT8); conditions: Compound concentration 100.0 nM
[15] = molecular target: Sigma non-opioid intracellular receptor 1 (Homo sapiens) (UniProt Q99720); conditions: Compound concentration 10.0 uM
[16] = molecular target: Microtubule-associated serine/threonine-protein kinase 1 (Homo sapiens) (UniProt Q9Y2H9); conditions: Compound concentration 100.0 nM
[17] = molecular target: Tyrosine-protein kinase Lck (Homo sapiens) (UniProt P06239); conditions: Compound concentration 100.0 nM
[18] = molecular target: Serine/threonine-protein kinase 35 (Homo sapiens) (UniProt Q8TDR2); conditions: Compound concentration 100.0 nM
[19] = molecular target: Serine/threonine-protein kinase 38-like (Homo sapiens) (UniProt Q9Y2H1); conditions: Compound concentration 100.0 nM
[20] = molecular target: cAMP-dependent protein kinase catalytic subunit PRKX (Homo sapiens) (UniProt P51817); conditions: Compound concentration 100.0 nM
[21] = system: ALK tyrosine kinase receptor (Homo sapiens), Q9UM73 [L1196M]; conditions: Compound concentration 100.0 nM
[22] = molecular target: Calcium/calmodulin-dependent protein kinase type II subunit gamma (Homo sapiens) (UniProt Q13555); conditions: Compound concentration 100.0 nM
[23] = molecular target: Phosphatidylinositol 4-kinase beta (Homo sapiens) (UniProt Q9UBF8); conditions: Compound concentration 100.0 nM
[24] = molecular target: Vascular endothelial growth factor receptor 3 (Homo sapiens) (UniProt P35916); conditions: Compound concentration 100.0 nM
[25] = molecular target: Calcium/calmodulin-dependent protein kinase type 1 (Homo sapiens) (UniProt Q14012); conditions: Compound concentration 100.0 nM
[26] = molecular target: Serine/threonine-protein kinase TAO1 (Homo sapiens) (UniProt Q7L7X3); conditions: Compound concentration 100.0 nM
[27] = molecular target: Ribosomal protein S6 kinase alpha-1 (Homo sapiens) (UniProt Q15418); conditions: Compound concentration 100.0 nM
[28] = molecular target: Wee1-like protein kinase 2 (Homo sapiens) (UniProt P0C1S8); conditions: Compound concentration 100.0 nM
[29] = molecular target: Calcium/calmodulin-dependent protein kinase type II subunit delta (Homo sapiens) (UniProt Q13557); conditions: Compound concentration 100.0 nM
[30] = molecular target: Hepatocyte growth factor receptor (Homo sapiens) (UniProt P08581); conditions: Compound concentration 100.0 nM
[31] = molecular target: Tyrosine-protein kinase ABL2 (Homo sapiens) (UniProt P42684); conditions: Compound concentration 100.0 nM
[32] = molecular target: Phosphatidylinositol 4,5-bisphosphate 3-kinase catalytic subunit gamma isoform (Homo sapiens) (UniProt P48736); conditions: Compound concentration 100.0 nM
[33] = molecular target: Myosin light chain kinase family member 4 (Homo sapiens) (UniProt Q86YV6); conditions: Compound concentration 100.0 nM
[34] = molecular target: Mitogen-activated protein kinase 11 (Homo sapiens) (UniProt Q15759); conditions: Compound concentration 100.0 nM
[35] = molecular target: Phosphatidylinositol 4,5-bisphosphate 3-kinase catalytic subunit beta isoform (Homo sapiens) (UniProt P42338); conditions: Compound concentration 100.0 nM
[36] = molecular target: Calcium/calmodulin-dependent protein kinase kinase 2 (Homo sapiens) (UniProt Q96RR4); conditions: Compound concentration 100.0 nM
[37] = molecular target: Serine/threonine-protein kinase MAK (Homo sapiens) (UniProt P20794); conditions: Compound concentration 100.0 nM
[38] = system: Epidermal growth factor receptor (Homo sapiens), P00533 [T790M]; conditions: Compound concentration 100.0 nM
[39] = molecular target: Tyrosine-protein kinase JAK2 (Homo sapiens) (UniProt O60674); conditions: Compound concentration 100.0 nM
[40] = molecular target: 5-hydroxytryptamine receptor 5A (Homo sapiens) (UniProt P47898); conditions: Compound concentration 10.0 uM
[41] = molecular target: Dual specificity protein kinase TTK (Homo sapiens) (UniProt P33981); conditions: Compound concentration 100.0 nM
[42] = molecular target: MAP kinase-activated protein kinase 5 (Homo sapiens) (UniProt Q8IW41); conditions: Compound concentration 100.0 nM
[43] = system: ALK tyrosine kinase receptor (Homo sapiens), Q9UM73 [C1156Y]; conditions: Compound concentration 100.0 nM
[44] = molecular target: Leukocyte tyrosine kinase receptor (Homo sapiens) (UniProt P29376); conditions: Compound concentration 100.0 nM
[45] = molecular target: Focal adhesion kinase 1 (Homo sapiens) (UniProt Q05397); conditions: Compound concentration 100.0 nM

Sequence of Calcium/calmodulin-dependent protein kinase type II subunit gamma (Homo sapiens) (Q13555 whole entry): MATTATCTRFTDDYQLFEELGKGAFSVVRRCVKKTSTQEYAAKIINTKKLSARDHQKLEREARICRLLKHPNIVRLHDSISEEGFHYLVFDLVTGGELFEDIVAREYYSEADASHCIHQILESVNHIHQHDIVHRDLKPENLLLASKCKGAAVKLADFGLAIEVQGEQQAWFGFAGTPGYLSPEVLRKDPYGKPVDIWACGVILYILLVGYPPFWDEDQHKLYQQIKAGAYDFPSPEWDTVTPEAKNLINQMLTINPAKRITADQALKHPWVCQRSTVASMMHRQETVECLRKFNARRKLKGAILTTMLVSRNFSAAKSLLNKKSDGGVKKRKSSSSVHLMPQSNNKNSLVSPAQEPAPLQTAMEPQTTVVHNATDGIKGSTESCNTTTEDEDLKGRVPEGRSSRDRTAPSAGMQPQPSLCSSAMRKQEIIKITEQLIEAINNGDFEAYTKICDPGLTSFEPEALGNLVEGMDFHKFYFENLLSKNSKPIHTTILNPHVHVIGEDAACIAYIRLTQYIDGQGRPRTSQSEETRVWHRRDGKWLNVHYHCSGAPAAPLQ
Sequence of ALK tyrosine kinase receptor (Homo sapiens), Q9UM73 [L1196M] (Q9UM73 whole entry L1196M, looked up): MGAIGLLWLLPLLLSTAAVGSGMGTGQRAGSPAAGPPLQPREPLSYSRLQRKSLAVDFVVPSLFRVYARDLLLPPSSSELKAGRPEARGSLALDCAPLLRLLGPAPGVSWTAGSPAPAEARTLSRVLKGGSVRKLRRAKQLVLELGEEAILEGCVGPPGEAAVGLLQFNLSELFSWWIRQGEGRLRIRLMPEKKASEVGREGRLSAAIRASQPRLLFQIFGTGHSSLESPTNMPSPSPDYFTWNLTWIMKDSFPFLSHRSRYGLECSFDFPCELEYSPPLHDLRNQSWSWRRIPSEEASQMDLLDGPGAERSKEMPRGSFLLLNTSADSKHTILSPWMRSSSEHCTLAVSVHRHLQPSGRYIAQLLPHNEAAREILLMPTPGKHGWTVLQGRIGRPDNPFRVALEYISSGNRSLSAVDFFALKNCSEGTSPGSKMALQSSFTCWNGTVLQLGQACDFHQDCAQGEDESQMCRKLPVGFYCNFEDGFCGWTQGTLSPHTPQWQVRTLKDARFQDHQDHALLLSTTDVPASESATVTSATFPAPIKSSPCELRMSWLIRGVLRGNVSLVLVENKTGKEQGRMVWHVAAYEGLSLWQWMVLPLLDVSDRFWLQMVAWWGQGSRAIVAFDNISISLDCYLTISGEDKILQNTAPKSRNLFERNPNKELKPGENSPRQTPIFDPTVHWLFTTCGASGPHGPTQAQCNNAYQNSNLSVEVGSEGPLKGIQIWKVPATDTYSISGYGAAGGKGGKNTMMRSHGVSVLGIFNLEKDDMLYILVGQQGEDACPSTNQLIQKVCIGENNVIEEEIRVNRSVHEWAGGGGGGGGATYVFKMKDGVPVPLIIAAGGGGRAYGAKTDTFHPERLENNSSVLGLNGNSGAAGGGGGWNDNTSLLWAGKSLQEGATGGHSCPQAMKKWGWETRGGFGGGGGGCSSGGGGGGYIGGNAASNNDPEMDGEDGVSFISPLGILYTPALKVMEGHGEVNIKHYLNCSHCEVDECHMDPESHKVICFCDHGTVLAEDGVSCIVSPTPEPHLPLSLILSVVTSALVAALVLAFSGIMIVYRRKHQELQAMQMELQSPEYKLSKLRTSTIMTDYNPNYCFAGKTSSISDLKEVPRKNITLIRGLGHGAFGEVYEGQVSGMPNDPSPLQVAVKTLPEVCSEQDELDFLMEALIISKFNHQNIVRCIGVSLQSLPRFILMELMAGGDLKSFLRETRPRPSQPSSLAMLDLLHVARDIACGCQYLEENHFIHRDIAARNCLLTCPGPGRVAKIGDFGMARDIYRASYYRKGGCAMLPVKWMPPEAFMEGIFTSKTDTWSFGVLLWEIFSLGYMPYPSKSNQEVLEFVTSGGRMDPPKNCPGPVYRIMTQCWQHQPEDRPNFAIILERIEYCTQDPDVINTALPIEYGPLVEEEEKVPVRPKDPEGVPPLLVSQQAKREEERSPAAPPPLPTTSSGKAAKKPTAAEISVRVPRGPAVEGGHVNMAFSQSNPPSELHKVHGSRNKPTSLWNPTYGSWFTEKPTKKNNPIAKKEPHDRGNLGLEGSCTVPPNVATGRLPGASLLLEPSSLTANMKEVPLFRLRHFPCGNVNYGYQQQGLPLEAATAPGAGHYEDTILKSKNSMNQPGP
Sequence of Rho-associated protein kinase 2 (Homo sapiens) (O75116 whole entry, looked up): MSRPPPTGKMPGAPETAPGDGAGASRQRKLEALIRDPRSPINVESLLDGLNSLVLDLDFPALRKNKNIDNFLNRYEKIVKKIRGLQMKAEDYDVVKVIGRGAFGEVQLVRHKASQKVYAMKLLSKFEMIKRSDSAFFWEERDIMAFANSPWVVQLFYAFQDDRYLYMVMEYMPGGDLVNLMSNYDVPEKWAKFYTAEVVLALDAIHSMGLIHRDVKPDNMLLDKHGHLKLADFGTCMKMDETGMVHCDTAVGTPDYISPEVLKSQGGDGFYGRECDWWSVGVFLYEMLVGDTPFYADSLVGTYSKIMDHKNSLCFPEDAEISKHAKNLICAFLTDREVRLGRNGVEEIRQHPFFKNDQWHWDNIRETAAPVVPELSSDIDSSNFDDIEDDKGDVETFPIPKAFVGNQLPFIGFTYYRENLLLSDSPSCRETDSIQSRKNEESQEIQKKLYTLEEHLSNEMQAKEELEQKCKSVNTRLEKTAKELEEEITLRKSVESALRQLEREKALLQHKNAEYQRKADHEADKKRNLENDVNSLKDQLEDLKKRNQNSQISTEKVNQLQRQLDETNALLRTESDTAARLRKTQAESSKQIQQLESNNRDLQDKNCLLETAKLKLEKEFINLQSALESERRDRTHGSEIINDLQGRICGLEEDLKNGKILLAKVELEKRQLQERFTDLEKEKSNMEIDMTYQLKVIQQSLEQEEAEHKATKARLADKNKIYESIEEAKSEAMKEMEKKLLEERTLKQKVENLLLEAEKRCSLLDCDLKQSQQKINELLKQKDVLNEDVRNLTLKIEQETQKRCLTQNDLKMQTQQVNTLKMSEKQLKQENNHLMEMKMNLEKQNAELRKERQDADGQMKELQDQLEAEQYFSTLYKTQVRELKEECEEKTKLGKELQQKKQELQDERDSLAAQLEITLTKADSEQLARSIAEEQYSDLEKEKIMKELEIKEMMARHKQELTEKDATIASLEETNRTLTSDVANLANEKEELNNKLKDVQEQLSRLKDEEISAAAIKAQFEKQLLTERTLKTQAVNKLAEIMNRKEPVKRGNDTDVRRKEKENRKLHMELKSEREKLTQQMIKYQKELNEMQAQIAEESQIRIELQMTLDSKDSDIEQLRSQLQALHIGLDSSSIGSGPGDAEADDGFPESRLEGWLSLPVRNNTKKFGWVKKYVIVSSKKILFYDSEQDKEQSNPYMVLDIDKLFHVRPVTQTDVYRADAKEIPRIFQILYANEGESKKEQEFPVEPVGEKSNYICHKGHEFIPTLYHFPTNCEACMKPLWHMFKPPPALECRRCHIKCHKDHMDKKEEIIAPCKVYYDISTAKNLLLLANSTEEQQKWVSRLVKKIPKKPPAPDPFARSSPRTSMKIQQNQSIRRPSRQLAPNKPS
Sequence of Microtubule-associated serine/threonine-protein kinase 1 (Homo sapiens) (Q9Y2H9 whole entry, looked up): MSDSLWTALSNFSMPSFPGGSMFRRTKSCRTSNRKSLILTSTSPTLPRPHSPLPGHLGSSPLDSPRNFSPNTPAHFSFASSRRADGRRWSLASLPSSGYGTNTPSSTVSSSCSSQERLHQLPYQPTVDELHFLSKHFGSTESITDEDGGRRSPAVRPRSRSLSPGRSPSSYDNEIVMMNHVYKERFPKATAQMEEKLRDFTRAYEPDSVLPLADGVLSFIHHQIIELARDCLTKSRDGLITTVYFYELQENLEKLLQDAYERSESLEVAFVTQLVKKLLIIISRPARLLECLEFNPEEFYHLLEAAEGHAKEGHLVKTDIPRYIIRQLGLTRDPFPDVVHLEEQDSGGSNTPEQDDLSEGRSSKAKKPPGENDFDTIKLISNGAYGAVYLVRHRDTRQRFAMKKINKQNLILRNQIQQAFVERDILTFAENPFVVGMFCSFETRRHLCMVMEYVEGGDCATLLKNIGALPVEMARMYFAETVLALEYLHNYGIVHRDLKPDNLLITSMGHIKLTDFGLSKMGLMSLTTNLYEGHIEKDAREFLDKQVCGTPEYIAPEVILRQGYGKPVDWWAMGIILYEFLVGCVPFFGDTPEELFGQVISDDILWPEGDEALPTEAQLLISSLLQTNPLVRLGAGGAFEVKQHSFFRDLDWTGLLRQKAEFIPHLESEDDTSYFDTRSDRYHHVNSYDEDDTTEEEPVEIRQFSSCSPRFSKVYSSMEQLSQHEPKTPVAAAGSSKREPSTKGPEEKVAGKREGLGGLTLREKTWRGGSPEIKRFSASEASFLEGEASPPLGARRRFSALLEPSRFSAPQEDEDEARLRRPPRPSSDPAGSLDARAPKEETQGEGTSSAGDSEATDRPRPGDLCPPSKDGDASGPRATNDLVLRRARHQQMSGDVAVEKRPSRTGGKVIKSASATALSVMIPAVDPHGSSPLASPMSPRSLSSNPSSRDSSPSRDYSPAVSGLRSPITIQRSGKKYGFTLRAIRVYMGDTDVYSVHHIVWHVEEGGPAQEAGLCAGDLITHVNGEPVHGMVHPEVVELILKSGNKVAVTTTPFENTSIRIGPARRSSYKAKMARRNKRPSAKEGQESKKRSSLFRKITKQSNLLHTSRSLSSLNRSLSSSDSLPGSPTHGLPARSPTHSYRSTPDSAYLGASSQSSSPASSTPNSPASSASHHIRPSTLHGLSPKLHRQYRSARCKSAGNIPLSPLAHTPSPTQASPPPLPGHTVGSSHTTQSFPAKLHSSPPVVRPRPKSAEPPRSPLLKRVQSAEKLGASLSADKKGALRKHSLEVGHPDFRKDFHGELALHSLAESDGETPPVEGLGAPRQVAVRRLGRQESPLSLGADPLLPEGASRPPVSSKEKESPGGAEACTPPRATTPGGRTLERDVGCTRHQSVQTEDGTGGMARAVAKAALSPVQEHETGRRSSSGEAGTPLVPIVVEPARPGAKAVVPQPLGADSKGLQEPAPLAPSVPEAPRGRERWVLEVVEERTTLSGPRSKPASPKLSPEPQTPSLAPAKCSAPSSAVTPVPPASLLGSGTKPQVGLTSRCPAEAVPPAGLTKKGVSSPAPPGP

CCOC(=O)c1cc2cc(-c3cc(C(=O)NCc4ccc(C(=O)O)cc4)nn3C)ccc2[nH]1 [BI 4394]
inactive: residual activity [1] 85% | residual activity [2] 83% | residual activity [3] 93% | residual activity [4] 100% | residual activity [5] 92% | residual activity [6] 100% | residual activity [7] 80% | inhibition [8] 9.64% | residual activity [9] 75% | residual activity [10] 91% | residual activity [11] 86% | residual activity [12] 91% | residual activity [13] 90% | residual activity [14] 78% | inhibition [15] 14.6% | residual activity [16] 87% | residual activity [17] 94% | residual activity [18] 94% | residual activity [19] 72% | residual activity [20] 100% | residual activity [21] 98% | residual activity [22] 100% | residual activity [23] 79% | residual activity [24] 97% | residual activity [25] 87% | residual activity [26] 90% | residual activity [27] 97% | residual activity [28] 100% | residual activity [29] 91% | residual activity [30] 96% | residual activity [31] 100% | residual activity [32] 90% | residual activity [33] 100% | residual activity [34] 98% | residual activity [35] 88% | residual activity [36] 95% | residual activity [37] 100% | residual activity [38] 89% | residual activity [39] 95% | inhibition [40] 14.8% | residual activity [41] 93% | residual activity [42] 92% | residual activity [43] 82% | residual activity [44] 100% | residual activity [45] 94%

Cn1nc(C(=O)NCc2ccc(C(=O)O)cc2)cc1-c1ccc2[nH]ccc2c1 [BI 4395]
active: residual activity [9] 33% | residual activity [24] 43%
inactive: residual activity [1] 82% | residual activity [2] 95% | residual activity [3] 100% | residual activity [4] 89% | residual activity [5] 86% | residual activity [6] 100% | residual activity [7] 93% | inhibition [8] 8.74% | residual activity [10] 86% | residual activity [11] 88% | residual activity [12] 92% | residual activity [13] 75% | residual activity [14] 98% | inhibition [15] 1.99% | residual activity [16] 100% | residual activity [17] 75% | residual activity [18] 94% | residual activity [19] 99% | residual activity [20] 71% | residual activity [21] 100% | residual activity [22] 83% | residual activity [23] 70% | residual activity [25] 95% | residual activity [26] 91% | residual activity [27] 100% | residual activity [28] 91% | residual activity [29] 83% | residual activity [30] 100% | residual activity [31] 93% | residual activity [32] 64% | residual activity [33] 76% | residual activity [34] 86% | residual activity [35] 82% | residual activity [36] 80% | residual activity [37] 92% | residual activity [38] 100% | residual activity [39] 90% | inhibition [40] 0.78% | residual activity [41] 88% | residual activity [42] 89% | residual activity [43] 65% | residual activity [44] 81% | residual activity [45] 85%
